Measured values from the supplement of paper PMC11451515.

Tested on: SEM cells
Assay: cell viability relative to DMSO control; higher = less cytotoxic
Conditions: 48 h
Outline: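 NOMO1 or SEM cells were plated at 500 cells/well and P12-Ichikawa cells at 1000 cells/well in 1536-well plates (5 μl), after each leukemia line had been adapted for at least four passages in each medium. Pin dosing delivered library compounds in DMSO at 11 threefold concentrations, 47 μM to 0.79 nM. CellTiter-Glo One luminescence was read after 48 h at 37°C. Viability is reported as a per-plate percentage of DMSO wells, with cell-free wells as background.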

[1] = HPLM + 10% dialyzed FBS, 0.000781 µM
[2] = HPLM + 10% dialyzed FBS, 0.00234 µM
[3] = HPLM + 10% dialyzed FBS, 0.00702 µM
[4] = HPLM + 10% dialyzed FBS, 0.0211 µM
[5] = HPLM + 10% dialyzed FBS, 0.0632 µM
[6] = HPLM + 10% dialyzed FBS, 0.19 µM
[7] = HPLM + 10% dialyzed FBS, 0.569 µM
[8] = HPLM + 10% dialyzed FBS, 1.71 µM
[9] = HPLM + 10% dialyzed FBS, 5.12 µM
[10] = HPLM + 10% dialyzed FBS, 15.4 µM
[11] = HPLM + 10% dialyzed FBS, 46.1 µM
[12] = RPMI 5 mM glucose + 10% FBS, 0.000781 µM
[13] = RPMI 5 mM glucose + 10% FBS, 0.00234 µM
[14] = RPMI 5 mM glucose + 10% FBS, 0.00702 µM
[15] = RPMI 5 mM glucose + 10% FBS, 0.0211 µM
[16] = RPMI 5 mM glucose + 10% FBS, 0.0632 µM
[17] = RPMI 5 mM glucose + 10% FBS, 0.19 µM
[18] = RPMI 5 mM glucose + 10% FBS, 0.569 µM
[19] = RPMI 5 mM glucose + 10% FBS, 1.71 µM
[20] = RPMI 5 mM glucose + 10% FBS, 5.12 µM
[21] = RPMI 5 mM glucose + 10% FBS, 15.4 µM
[22] = RPMI 5 mM glucose + 10% FBS, 46.1 µM
[23] = RPMI 5 mM glucose + 10% dialyzed FBS, 0.000781 µM
[24] = RPMI 5 mM glucose + 10% dialyzed FBS, 0.00234 µM
[25] = RPMI 5 mM glucose + 10% dialyzed FBS, 0.00702 µM
[26] = RPMI 5 mM glucose + 10% dialyzed FBS, 0.0211 µM
[27] = RPMI 5 mM glucose + 10% dialyzed FBS, 0.0632 µM
[28] = RPMI 5 mM glucose + 10% dialyzed FBS, 0.19 µM
[29] = RPMI 5 mM glucose + 10% dialyzed FBS, 0.569 µM
[30] = RPMI 5 mM glucose + 10% dialyzed FBS, 1.71 µM
[31] = RPMI 5 mM glucose + 10% dialyzed FBS, 5.12 µM
[32] = RPMI 5 mM glucose + 10% dialyzed FBS, 15.4 µM
[33] = RPMI 5 mM glucose + 10% dialyzed FBS, 46.1 µM

SMILES | cell viability [1] [%] | cell viability [2] [%] | cell viability [3] [%] | cell viability [4] [%] | cell viability [5] [%] | cell viability [6] [%] | cell viability [7] [%] | cell viability [8] [%] | cell viability [9] [%] | cell viability [10] [%] | cell viability [11] [%] | cell viability [12] [%] | cell viability [13] [%] | cell viability [14] [%] | cell viability [15] [%] | cell viability [16] [%] | cell viability [17] [%] | cell viability [18] [%] | cell viability [19] [%] | cell viability [20] [%] | cell viability [21] [%] | cell viability [22] [%] | cell viability [23] [%] | cell viability [24] [%] | cell viability [25] [%] | cell viability [26] [%] | cell viability [27] [%] | cell viability [28] [%] | cell viability [29] [%] | cell viability [30] [%] | cell viability [31] [%] | cell viability [32] [%] | cell viability [33] [%]
OC(COC1=C2C(=O)\C=C(/OC2=CC=C1)C([O-])=O)COC3=C4C(=O)\C=C(/OC4=CC=C3)C([O-])=O | 65.3 | 72.3 | 76 | 73.9 | 77.7 | 43.5 | 80.8 | 88 | 95.9 | 73.1 | 96.8 | 71 | 83.6 | 85.6 | 84.3 | 86.6 | 20.2 | 65.6 | 74.7 | 99.4 | 65.9 | 90.9 | 72.1 | 74.5 | 76.6 | 73.5 | 91.4 | 64 | 82.6 | 95.1 | 102 | 76.9 | 97.7
C[N+](C)([O-])CCNc1ccc(NCC[N+](C)(C)[O-])c2c1C(=O)c1c(O)ccc(O)c1C2=O | 101 | 85.4 | 83.8 | 84.5 | 88.8 | 77.1 | 69.7 | 46.4 | 7.02 | 20.1 | 10.1 | 101 | 95.8 | 105 | 89.9 | 73.5 | 56.6 | 55.8 | 28.8 | 7.28 | 12.8 | 9.18 | 88.9 | 86.1 | 93.8 | 87.7 | 79.5 | 68.2 | 62 | 33.5 | 8.62 | 18.8 | 12
COc1cc(N[S+](=O)([O-])c2ccc(N)cc2)nc(OC)n1 | 71.9 | 78.4 | 85.6 | 83 | 86.4 | 85.5 | 81.7 | 82.6 | 76.5 | 74.6 | 66.4 | 76.1 | 102 | 90.6 | 83.4 | 102 | 108 | 108 | 96.9 | 84.5 | 111 | 106 | 92.8 | 91.3 | 99.7 | 98.8 | 118 | 101 | 92.7 | 95.3 | 98.9 | 101 | 101
O=C1NC(O)CCN1[C@@H]1O[C@H](CO)[C@@H](O)[C@H]1O (stereo not given in full) | – | – | – | – | – | – | – | – | – | – | – | 114 | 125 | 123 | 111 | 114 | 125 | 117 | 111 | 115 | 134 | 122 | – | – | – | – | – | – | – | – | – | – | –
